Assay results: publication PMC5880945, “D-Arg^0-Bradykinin-Arg-Arg, a Latent Vasoactive Bradykinin B2 Receptor Agonist Metabolically Activated by Carboxypeptidases” (Frontiers in Pharmacology, 2018)
“Also recorded” adds a separate entry of the source. Square brackets hold non-standard residues; d marks the D form. Ends that are not written are not given here.

Experiments:
anesthetized rats [1] = experiment: In vivo hemodynamics in anesthetized rats pretreated with icatibant or peptidase inhibitors; design: species or system male Sprague-Dawley rats; details: for Mean arterial blood pressure, basal after pre-treatment / Heart rate, basal after pre-treatment: 15 min after i.v. pretreatment, mean ± SEM, n = 10 icatibant, 9 enalaprilat, 8 Plummer’s, 10 combination; for Mean arterial blood pressure, basal after pre-treatment: untreated control 93.2 ± 3.3 (n = 13), ANOVA N.S.; for Heart rate, basal after pre-treatment: untreated control 352 ± 10 (n = 13), ANOVA P < 0.001, * icatibant, ** others
Experimental: All surgical and experimental procedures were reviewed and approved by the Animal Care and Handling Committee of Laval University, in accordance with the Canadian Council on Animal Care. Experiments were performed on male Sprague-Dawley rats (300–375 g) purchased from Charles River Laboratories (St-Constant, QC, Canada). The rats were housed in a light-controlled (12:12-h light-dark cycle (lights on at 0600)) and temperature-regulated room (22 ± 1°C). Animals had free access to normal chow diet and tap water. They were allowed to acclimate to their environmental conditions for 1 week prior to being studied. At the end of the acclimation period, the rats were anesthetised with sodium pentobarbital (50 mg kg^-1, i.p., supplemented as required) and had one catheter implanted into the right jugular vein [for intravenous (i.v.) injection] and one into the left femoral artery [for direct and continuous measurement of blood pressure and heart rate as previously described ([Jean et al., 2016])]. Experiments started at least 20 min following the end of surgery in anesthetised rats.
The mechanism subserving the cardiovascular responses to random i.v. injections of r-BK and r-BK-RR at the dose of 1.6 μg/kg, was evaluated in rats pretreated with specific antagonists. In these experiments, the rats were separated in four groups depending on the antagonist tested, and the cardiovascular responses to the peptides agonists were compared with those elicited in the untreated control group of rats. In the first group of treated rats, the long acting and selective B2R antagonist, icatibant (Hoe 140) (D-Arg-[Hyp^3, Thi^5, D-Tic^7, Oic^8]) bradykinin ([Hock et al., 1991]; [Wirth et al., 1991]; [Rhaleb et al., 1992]; [Marceau et al., 1994]) was intravenously administered as bolus (75 μg/kg, 0.1 ml) following a 10 min period of baseline measurements of heart rate and blood pressure. Fifteen minutes later, recording changes in blood pressure and heart rate elicited by i.v. injection of peptide vehicle (saline-BSA 0.1%) followed by random injections of r-BK and r-BK-RR, were made as described above. The next peptide was administered once all recorded cardiovascular parameters had returned to baseline after the previous injection. Further experiments were made in a second group of rats pretreated with the ACE inhibitor, enalaprilat. In these experiments, enalaprilat was intravenously administered as bolus ([…], 0.1 ml) 15 min before the i.v. injections of peptide vehicle and both customized peptides, as above. Further experiments were also carried out in rats pretreated with the Plummer’s inhibitor (mercaptomethyl-3-guanidinoethylthiopropanoic acid) a high affinity inhibitor of arginine carboxypeptidases that is an arginine analog ([Plummer and Ryan, 1981]). The inhibitor was intravenously administered as bolus (0.75 mg/kg, 0.1 ml) followed 15 min later by the i.v. injections of saline-BSA 0.1%, and then r-BK and -r-BK-RR (1.6 μg/kg) in random order. A fourth group of rats was pretreated with a combined i.v. injection of enalaprilat (0.1 mg/kg) and the Plummer’s inhibitor (0.75 mg/kg) 15 min before the randomized i.v. injections of both customized peptides, as above. The doses of different inhibitors were based on preliminary experiments and from previous studies performed by us and others ([Ishida et al., 1989]; [Wirth et al., 1991]; [Muto et al., 2003]; [Jean et al., 2016]). At the end of the experiments the rats were euthanized with an overdose of sodium pentobarbital (240 mg/kg, i.v.).
Results are presented as means ± SEM. Radioligand binding data were fitted by non-linear regression to a one-site competition equation using a least-square method (Prism 5.0, GraphPad Software Inc., San Diego, CA, United States) and IC50 values calculated from this procedure. […]

[2] = tested on: ACE (two separate catalytic sites); details: ref Araujo et al., 2000; cited from earlier work
From the text: The source of enzyme was whole HEK 293a cells grown in 24-well plates and transfected as described with a vector coding for the human ACE-mCherry fusion protein, an active enzyme ([Charest-Morin an ...

[3] = tested on: human ACE-mCherry fusion protein; experiment: Competition of a fluorogenic ACE substrate by synthetic kinins (recombinant ACE-mCherry); format: biochemical; details: enalaprilat 1 μM; 15 min, 37°C; fluorescence
Experimental: The source of enzyme was whole HEK 293a cells grown in 24-well plates and transfected as described with a vector coding for the human ACE-mCherry fusion protein, an active enzyme ([Charest-Morin and Marceau, 2016]). The culture medium was removed from cell wells, which were rinsed twice with PBS. The fluorogenic substrate (final concentration 20 μM), and, optionally, a competitor (BK, r-BK, or r-BK-RR in variable concentrations, or the ACE inhibitor enalaprilat 1 μM) were added in 250 μl PBS in each well; the plates were then incubated for 15 min at 37°C. At this point, the well supernatants were transferred in Eppendorf tubes, centrifuged 30 s at 12500 rpm to remove debris and 100 μl of this fluid transferred in wells of 96-well plate (black background) to read the fluorescence (excitation 320 nm, emission 420 nm) using a TECAN Infinite® 200 PRO microplate reader. Results were expressed as the percent of the fluorescence in wells containing ACE-mCherry and the substrate without competitors. Controls included mock-transfected cells and enalaprilat-treated cells.

anesthetized rats [4] = tested on: anesthetized rats; design: method as in 2 sources, one per row (each row's own in cited_ref): ref Jean et al., 2016; Charest-Morin et al., 2017 ||| ref Jean et al., 2016; details: intravenous boluses; ref Jean et al., 2016; Charest-Morin et al., 2017; cited from earlier work
[5] = tested on: GFP-tagged rabbit B2R (B2R-GFP); experiment: B2R-GFP endocytosis and recycling, epifluorescence microscopy, HEK 293 cells; format: cell-based; details: 30 min vs 3 h of stimulation
[6] = biological target: T1, endogenous B2R of the human isolated umbilical vein (human (endogenous in umbilical vein), UniProt P30411 1-391); experiment: cell-based or functional assay
T1 sequence (looked up): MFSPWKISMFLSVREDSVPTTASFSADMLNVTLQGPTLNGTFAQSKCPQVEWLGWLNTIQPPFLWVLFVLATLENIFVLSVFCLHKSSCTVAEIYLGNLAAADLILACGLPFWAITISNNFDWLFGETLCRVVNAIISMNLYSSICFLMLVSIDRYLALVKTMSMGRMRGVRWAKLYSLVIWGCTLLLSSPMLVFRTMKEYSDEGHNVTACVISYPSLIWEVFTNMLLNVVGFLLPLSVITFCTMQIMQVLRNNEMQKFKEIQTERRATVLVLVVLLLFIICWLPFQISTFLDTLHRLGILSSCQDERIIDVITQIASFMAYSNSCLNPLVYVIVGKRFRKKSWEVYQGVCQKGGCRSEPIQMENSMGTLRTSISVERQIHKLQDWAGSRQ

[7] = biological target: T2, myc-tagged rat B2R construction (rat, UniProt P25023 1-396); experiment: radioligand binding; competition of the binding of 3 nM [^3H]BK to adherent intact HEK 293 cells stably expressing myc-tagged rat B2R by unlabeled peptides; 0°C; peptidase inhibitors including captopril and PMSF; one-site competition fit; details: one partner purified
T2 construct: bradykinin B2 receptor, rat; also called rat myc-B2R; rat recombinant myc-B2R; source: HEK 293 cells stably expressing the construction, adherent intact cells
T2 sequence (looked up): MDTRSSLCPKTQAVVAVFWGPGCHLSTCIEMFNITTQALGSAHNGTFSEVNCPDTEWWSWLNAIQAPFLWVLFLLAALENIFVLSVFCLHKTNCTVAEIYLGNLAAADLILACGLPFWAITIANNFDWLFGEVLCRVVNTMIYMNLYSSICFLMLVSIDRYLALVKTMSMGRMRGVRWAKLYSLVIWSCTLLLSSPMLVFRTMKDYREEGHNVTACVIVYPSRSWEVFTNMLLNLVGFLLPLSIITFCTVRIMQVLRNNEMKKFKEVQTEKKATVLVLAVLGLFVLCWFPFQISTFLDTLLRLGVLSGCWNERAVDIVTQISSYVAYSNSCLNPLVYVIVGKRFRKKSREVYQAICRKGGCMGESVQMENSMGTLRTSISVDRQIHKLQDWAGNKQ

Question: For `N=C(N)NCCSCC(CS)C(=O)O` (stereo not shown) [Plummer’s inhibitor, mercaptomethyl-3-guanidinoethylthiopropanoic acid, reference compound], which “Mean arterial blood pressure, basal after pre-treatment” value (from here on “Mean arterial blood pressure, basal”) (anesthetized rats [1]) is on record?
Answer: 90.3 ± 3.6

Question: And the “Heart rate, basal after pre-treatment” value (anesthetized rats [1])?
Answer: 407 ± 10^∗∗

Question: Which “affinity for the two catalytic sites of ACE, in words” value [2] does the source give for “Abz-Phe-Arg-Lys(Dnp)-Pro-OH [internally quenched fluorogenic ACE substrate]” here?
Answer: approximately equal low micromolar affinity

Question: For `C[C@H](N[C@@H](CCc1ccccc1)C(=O)O)C(=O)N1CCC[C@H]1C(=O)O` [Enalaprilat, enalaprilat, reference compound], which “Mean arterial blood pressure, basal” value (anesthetized rats [1]) is on record?
Answer: 89.8 ± 4.1

Question: What about the “Heart rate, basal after pre-treatment” value (anesthetized rats [1]) of the same molecule?
Answer: 412 ± 11^∗∗

Question: And the “hydrolysis of ACE substrate by ACE-expressing cells treated with inhibitor, in words” value [3]?
Answer: did not catalyze the reaction

Question: Which “duration of action vs BK in vivo, in words” value (anesthetized rats [4]) does the source give for “D-Arg-[Hyp^3, Igl^5, Oic^7, Igl^8]-BK [B-9972, reference compound]” here?
Answer: not remarkably more longer acting than BK in vivo

Question: What about the “persistence of B2R-GFP endocytosis, in words” value [5] of the same molecule?
Answer: persistent morphologic response; also recorded: prolonged endocytosis of B2R-GFP

Question: For “D-Arg-[Hyp3,Thi5,D-Tic7,Oic8]bradykinin [Icatibant, reference compound]”, which “Mean arterial blood pressure, basal” value (anesthetized rats [1]) is on record?
Answer: 93.7 ± 3.3

Question: And the “Heart rate, basal after pre-treatment” value (anesthetized rats [1])?
Answer: 396 ± 10^∗

Question: What about the “inhibition of hypotensive effects of r-BK and r-BK-RR, in words” value (anesthetized rats [1]; icatibant i.v. pretreatment, r-BK or r-BK-RR 1.6 μg/kg i.v.) of the same molecule?
Answer: their effects were inhibited by icatibant

B1: D-Arg^0-BK (peptide)
peptide: [dR]RPPGFSPFR
notes: D-Arg^0, N-terminal extension (a D-residue); bradykinin, whole nonapeptide; also called r-BK; D-Arg^0-bradykinin; source: synthetic peptide (CanPeptide, Inc., solid-phase, ≥98.3% pure)
Question: With B1 as the molecule, how does the “contractile EC50, human isolated umbilical vein, control” value [6] read?
Answer: 62.4 nM

Question: And the “contractile EC50, human isolated umbilical vein, with Plummer’s inhibitor 1 μM” value [6]?
Answer: 68.4 nM

Question: And the “contractile EC50, human isolated umbilical vein, with enalaprilat 1 μM” value [6]?
Answer: 61.6 nM

Question: What about the “contractile EC50, human isolated umbilical vein, with enalaprilat 1 μM + Plummer’s inhibitor 1 μM” value [6] of the same molecule?
Answer: 45.1 nM

Question: What about the IC50 [7] of the same molecule?
Answer: 13.3 nM

B2: D-Arg^0-BK-Arg-Arg (peptide)
peptide: [dR]RPPGFSPFRRR
notes: D-Arg^0, N-terminal extension (a D-residue); bradykinin, whole nonapeptide; Arg-Arg, C-terminal extension; also called r-BK-RR; D-Arg^0-Bradykinin-Arg-Arg; source: synthetic peptide (CanPeptide, Inc., solid-phase, ≥98.3% pure)
Question: What does the source list for B2?
Answer: contractile EC50, human isolated umbilical vein, with enalaprilat 1 μM (ACE blockade) [6]: 1510 nM; contractile EC50, human isolated umbilical vein, with enalaprilat 1 μM + Plummer’s inhibitor 1 μM (ACE blockade) [6]: 1760 nM; IC50 [7]: 1050 nM
